From ChEMBL document CHEMBL3301451, “MMV Malaria Box gametocyte functional viability assay screening”

Legend:
Assay type in all cases: functional
Parameters in all cases: concentration or dose not given beside the values
[1] = test system: Plasmodium falciparum; test: (§1) MMV: P. falciparum NF54 functionally mature Stage V gametocytes were incubated for 24 hr in the presence of the test compounds. Gamete formation was then triggered by addition of 2uM xantheurenic acid and temperature decrease to ~20C. Male gamete exflagellation was recorded and analysed by automated microscopy after 20 min. All compounds were tested in 4 independent experiments and data presented here is the mean.
[2] = test system: Plasmodium berghei; test: MMV: P. berghei-infected blood was withdrawn from mice by cardiac pucture before being immediately added to ookinete culture medium containing test compounds. 26 hr later, GFP-positive ookinetes were identified and counted by automated microscopy. All compounds were tested in 4 independent experiments and data presented here is the mean.
[3] = test system: Plasmodium falciparum; test: as §1, with “Female” for “Male”, “formation” for “exflagellation”, “24 hr later” for “and analysed”, “detection of surface labelling of female gametes with a Cy3-conjugated antibody reactive to Pfs25.” for “after 20 min.”; conditions: NF54, 24 h

Row | SMILES | inhibition [1] | inhibition [2] | inhibition [3]
1 | O=C(Nc1ccc(Cl)c(Cl)c1)Nc1ccc(Cl)c(Cl)c1 | -55.6% | -17.89% | -21.6%
2 | N=c1n(CCN2CCCCC2)c2ccccc2n1CC(=O)c1ccc(Cl)c(Cl)c1 | -14.4% | -13.93% | -16.3%
3 | Cc1sc(NC(=O)c2ccccc2)c(C(c2cccs2)N2CCN(c3ccccc3)CC2)c1C (centres undefined) | 8.21% | -17.69% | -14.4%
4 | CCOC(=O)c1c(C)n(-c2ccccc2)c2ccc(OC(=O)c3cc(OC)c(OC)c(OC)c3)cc12 | 18.3% | -17.17% | -31.5%
5 | CCN(CC)CCNc1ncnc2c1[nH]c1ccc(Cl)cc12 | -43.5% | -19.34% | -27.6%
6 | CC(C)(C)CC(C)(C)NCC(O)COc1ccc(Cl)cc1Cl (centres undefined) | -10.7% | -15.58% | -45.2%
7 | O=C(Nc1ccc(Br)cc1)Nc1cccc(Cl)c1 | 24.2% | -16.14% | -16.5%
8 | Cl.N=c1n(CCN2CCCCC2)c2ccccc2n1CC(O)c1cccc(Br)c1 (centres undefined) | -19.3% | -14.54% | -26.6%
9 | CCN1CCN(Cc2ccc(NC(=O)c3cc4ccc5cccnc5c4[nH]3)cc2)CC1 | 15.9% | -14.48% | -5.39%
10 | O=C(O)C1Cc2c([nH]c3ccccc23)C(c2ccc(Cl)cc2Cl)N1 (centres undefined) | 21% | -13.83% | -17.3%
11 | COc1ccc(C(=O)Nc2ccc3nc(N4CCCCC4)cc(C)c3c2)cc1OC | 9.9% | -18.9% | -48%
12 | Cc1ccc(N2C(=O)C3C(C2=O)C2(c4ccccc4)C(=O)C3(c3ccccc3)C(c3ccccc3)=C2c2ccccc2)cc1 (centres undefined) | 21.2% | -15.1% | -19.9%
13 | Cc1ccc(C(=O)c2oc3ccc4c(C)cc(=O)oc4c3c2C)cc1 | -7.03% | -19.35% | -29.5%
14 | COc1ccc(CN2CCCC(C(=O)c3ccc(C(F)(F)F)cc3)C2)c(O)c1 (centres undefined) | 36.1% | -17.45% | 6.89%
15 | CCC(c1ccccc1)c1nn2c(-c3cccs3)nnc2s1 (centres undefined) | 1.43% | -15.76% | -48.4%
16 | O=C(CCl)NCCOc1ccc(Cl)cc1Cl | 13.7% | -18.34% | -30.6%
17 | CC(=O)c1ccc(NC(=O)CSc2nc(-c3ccccc3Cl)ns2)cc1 | 33.1% | -19.34% | 2.09%
18 | O=[N+]([O-])c1ccc(C=NNc2nc3ccccc3[nH]2)cc1 | 18.3% | -19.94% | -17%
19 | CCOc1cc2c(cc1OCC)C(c1cc(OC)c(O)cc1Cl)NCC2 (centres undefined) | 19.6% | -21.67% | -6.96%
20 | COc1ccc(CNC(=O)c2cc3c(=O)n4ccccc4nc3n(CCc3ccccc3)c2=N)cc1 | -25% | -21.18% | 0.565%
21 | CCOc1cc(Br)c(C(C)NC(=O)c2cccc(OC)c2)cc1OCC (centres undefined) | 10.3% | -20.12% | -28.3%

Row | SMILES | inhibition [1] | inhibition [2] | inhibition [3]
22 | CC(C)=CCN1CCC(C(=O)Nc2ccc(-c3nc4ccccc4[nH]3)cc2)CC1 | -15.4% | -16.54% | -19.7%
23 | Nc1ccc(-c2nc3cc(Cc4ccc5[nH]c(-c6ccc(N)cc6)nc5c4)ccc3[nH]2)cc1 | 26.6% | -14.26% | 2.76%
24 | Cl.Cn1c(=O)n(C)c2cc(CNCCNc3ccnc4cc(Cl)ccc34)ccc21 | -3.18% | -19.76% | -26.8%
25 | O=C(Nc1ccc(CN2CCOCC2)cc1)c1ccc(-c2cc(Cl)ccc2Cl)o1 | 2.57% | -15.91% | -21.4%
26 | COc1ccc(Nc2cc(C)nc(NCc3ccccc3)n2)cc1 | -9.51% | -20.03% | -30.5%
27 | COc1ccc(NC(=O)C2c3ccccc3C(=O)N(CC(C)C)C2c2cccs2)cc1Cl (centres undefined) | 8.99% | -15.31% | -2.16%
28 | O=C(Nc1cccc(-c2nc3ccccc3[nH]2)c1)c1cccc(NC(=O)c2ccco2)c1 | 31.6% | -15.24% | -35.1%
29 | COc1ccccc1CNC(=O)CCn1c(=O)[nH]c2ccccc2c1=O | 13.3% | -17.49% | -26.4%
30 | CCOC(=O)c1cnc2ccc(OC)cc2c1Nc1ccc(N2CCN(C)CC2)cc1 | -13.9% | -18.25% | -40%
31 | COc1cc(OC)c(N(C)C(=O)c2cc3c(s2)-c2ccccc2S(=O)(=O)C3)cc1Cl | 7.68% | -16.25% | -14.9%
32 | COc1cc(C(=O)ON=C(N)Cc2cccc3ccccc23)cc(OC)c1OC | -12.8% | -15.26% | -26.8%
33 | CCN(CC)CCCNc1ccnc2cc3ccccc3cc12 | 30.2% | -14.18% | 20.2%
34 | CN1C=C(c2ccc3ccccc3n2)C(c2c[nH]c3ccccc23)c2ccccc21 (centres undefined) | -6.39% | -19.58% | -36.4%
35 | Cc1ccccc1OCCSc1nc2ccc(NC(=O)c3ccccc3)cc2s1 | 5.46% | -15.11% | -13.8%
36 | COc1ccc(-c2nonc2NC(=O)c2cccc(Cl)c2)cc1OC | 18.1% | -15.75% | 12%
37 | Cc1cc(NC(=O)C2c3ccccc3C(=O)N(CC(C)C)C2c2cccs2)no1 (centres undefined) | 52.5% | -16.54% | 40.3%
38 | COc1ccc(Br)cc1C1Nc2ccc3ccccc3c2C2=C1C(=O)CC(c1ccccc1)C2 (centres undefined) | 9.97% | -18.54% | -13.2%
39 | Cc1ccc(-c2nc3ccccc3o2)cc1NCc1cc(Cc2ccccc2)ccc1O | 13.9% | -14.9% | -8.19%
40 | OC(CNC1CCCCC1)Cn1c2ccc(I)cc2c2cc(I)ccc21 (centres undefined) | -12.3% | -21.59% | -48%
41 | CC1CCN(Cc2ccc(NC(=O)c3cc4ccc5cccnc5c4[nH]3)cc2)CC1 | 10.2% | -17.24% | -3.24%
42 | CCOc1cc2c(cc1OCC)C(c1cc(C)c(O)c(C)c1)NCC2.Cl (centres undefined) | -7.71% | -16.67% | 20.2%

Row | SMILES | inhibition [1] | inhibition [2] | inhibition [3]
43 | OC(CNC1CCCC1)Cn1c2ccccc2c2ccccc21 (centres undefined) | -4.27% | -16.75% | 12.4%
44 | CCc1ccc(Nc2cc(C)c3ccc(O)cc3n2)cc1.Cl | 15.2% | -20.95% | -14%
45 | COc1cccc(C(=O)NC(c2ccc(C)cc2)c2cc(Cl)c3cccnc3c2O)c1 (centres undefined) | 19.5% | -20.64% | 0.843%
46 | Cc1ccc(NC(=O)Nc2cccc(Cl)c2)cc1F | 2.14% | -16.5% | -4.87%
47 | Br.CCn1c2c(c(=N)c3c1CCC3)CCCC2 | -42.4% | -17.86% | -26.2%
48 | Clc1ccc2[nH]c3c(NCCCN4CCOCC4)ncnc3c2c1 | 21.6% | -16.54% | -15.9%
49 | Cc1cc(Nc2ccc(Cl)cc2)n2nc(C(F)(F)F)nc2n1 | 15.3% | -18.89% | -10.6%
50 | COc1ccc(CN2CCN(Cc3ccccc3)CC2)c(O)c1 | -11.1% | -17.51% | -16.4%
51 | COc1ccc(C(C)=O)cc1N1C(=O)C2C(C1=O)C1(c3ccccc3)C(=O)C2(c2ccccc2)C(c2ccc(C)cc2)=C1c1ccc(C)cc1 (centres undefined) | 21.8% | -19.71% | -9.11%
52 | CCCCCCc1cc(O)c2c3c(c(=O)oc2c1)CCC(C)C3 (centres undefined) | -1.29% | -17.21% | -7.13%
53 | COc1ccc(CCNC(=O)c2cc(S(=O)(=O)N3CC(C)CC(C)C3)ccc2Sc2ccc(F)cc2)cc1OC (centres undefined) | -26.1% | -21.03% | 4.07%
54 | CCOc1ccc2nc(C)cc(Nc3ccc(Br)cc3)c2c1 | -29.1% | -16.41% | -27.4%
55 | COc1cc2c3cc1Oc1c(OC)c(OC)cc4c1C(Cc1ccc(O)c(c1)Oc1ccc(cc1)CC3N(C)CC2)N(C)CC4.Cl (centres undefined) | -64.1% | -16.79% | -37.2%
56 | CCOC(=O)C1CCN(C(=O)CN2C(=O)c3ccccc3C2c2c[nH]c3ccccc23)CC1 (centres undefined) | 32.6% | -16.49% | -26%
57 | Cc1ccc(N2C3c4ccccc4N(S(=O)(=O)c4ccc(C)cc4)C2c2ccccc2N3S(=O)(=O)c2ccc(C)cc2)cc1 | 24.2% | -13.78% | -6.27%
58 | Cc1ccc(Nc2nc(NCCO)c3ccccc3n2)cc1C | 12.7% | -19.56% | -25.6%
59 | COc1ccc2sc(N(Cc3cccnc3)C(=O)c3ccc(C#N)cc3)nc2c1 | 18.5% | -20.76% | -25.4%
60 | CCc1ccc(Nc2cc(C)nc3nc(C)nn23)cc1 | 20.5% | -14.94% | -17.7%
61 | CCOC(=O)C1=CN(C)C=C(C(=O)OCC)C1c1cc(Br)c(OCC)c(OC)c1 | 22.3% | -13.86% | -20.1%
62 | Cc1c(C)n(CC(O)CNC2CCCCC2C)c2ccccc12 (centres undefined) | 8.26% | -21.36% | -4.05%
63 | CN1CCN(c2nc(Nc3ccc(O)cc3)nc3ccccc23)CC1.Cl | 2% | -15.95% | -25.1%
